# “And” between values parts separate entries of the source, which are not always exact repeats. Equal values may be shown once.
# Test system: 565232-114-T-J1-PDC complex spheroid viability
# Assay: Anticancer human tumor 565232-114-T-J1-PDC patient-derived bladder carcinoma cell line growth inhibition [CLK]
# Conditions: for viability, T/C: stronger effect = lower value
# Description: A high-throughput screen of multi-cell type tumor spheroids was designed to identify active combinations of […] and targeted small molecules. Complex spheroids include a stromal component modeled by human endothelial cells (HUVEC) and fibroblasts modeled by human mesenchymal stem cells (MSCs). The concentration ranges selected for each drug and investigational agent were based upon clinically achievable concentrations if the clinical Cmax of the agent was known.
# Compounds. The drugs and investigational agents: cirtuvivint (SM08502; NSC835563), CC-671 (NSC850746), vemurafenib (NSC761431), tapotoclax (NSC804041), sotorasib (NSC818433), adagrasib (NSC831453), MRTX-1133 (NSC836407), BAY2416964 (NSC825713), copanlisib (NSC816437), inavolisib (NSC800729), abemaciclib (NSC768073), osimertinib (NSC779217), entinostat (NSC756642), eltanexor (KPT-8602, NSC794443), venetoclax (NSC766270), ceralasertib (NSC777638), bortezomib (NSC756655), olaparib (NSC753686), talazoparib (NSC767125), alisertib (NSC759677), peposertib (NSC802822), gemcitabine (NSC613327), 5-fluorouracil (NSC19893), SN-38 (NSC673596), oxaliplatin (NSC266046), paclitaxel (NSC125973), and doxorubicin (NSC123127), were obtained from the National Cancer Institute (NCI) Developmental Therapeutics Program Chemical Repository. The FDA-approved anticancer drug set is available from the Developmental Therapeutics Program at https://dtp.cancer.gov/organization/dscb/obtaining/available plates.htm. […] The stock solutions were prepared in dimethyl sulfoxide (DMSO, Sigma-Aldrich, St. Louis, MO, cat. D2650), except for the platinum complexes which were prepared in saline (Quality Biological, Gaithersburg, MD, cat. 114-055-101), at 800-fold the tested concentration and stored at -70 degrees C prior to their use. All drugs and investigational agents were tested over a range starting from a high concentration at or near the clinical Cmax and decreasing in half-log increments. If the clinical Cmax for an agent had not been determined, the highest concentration tested was 10 microM.
# Cell Culture. All cells were maintained in an incubator at 37 degrees C and 5% CO2 with 95% humidity. The PDC lines were cultured according to standard operating procedures established by the NCI PDMR. Briefly, all PDCs were thawed and cultured in Matrigel-coated flasks prepared with a working solution of 1X Ham's F-12 nutrient mix, without supplementation (Invitrogen, Waltham, MA, cat. 11765054), 100 U/mL penicillin-streptomycin (Invitrogen, cat. 15140122), and 2.5% Matrigel (Corning Inc., Corning, NY, cat. 354248) for the first three passages. The 947758-054-R-J2-PDC line was cultured in 6B/Colon 1A media, which includes advanced DMEM/F-12 (Thermo Fisher Scientific, cat. 12634028), 10 mM HEPES (Thermo Fisher Scientific, cat. 15630080), 1X GlutaMAX supplement (Thermo Fisher Scientific, cat. 35050061), 0.1 mg/mL primocin (InvivoGen, cat. ant-pm-2), 10% defined fetal bovine serum, heat inactivated (HyClone Laboratories Inc., cat. SH30070.03HI), 1.25 mM N-Acetyl-L-cysteine (Sigma-Aldrich, cat. A9165), 10 mM nicotinamide (Sigma-Aldrich, cat. N0636), 1X B-27 supplement (Thermo Fisher Scientific, cat. 17504044), 1X N-2 supplement (Thermo Fisher Scientific, cat. 17502048), and 10 microM Y-27632 dihydrochloride (Tocris Bioscience, cat. 1254). The 876862-298-R-J1-PDC was cultured in 6E media, which includes all 6B/Colon 1A media components plus 50% L-WRN conditioned media (ATCC, cat. CRL-3276), 50 ng/mL recombinant human EGF recombinant protein (hEGF; Thermo Fisher Scientific, cat. PHG0311), 10 ng/mL recombinant human fibroblast growth factor 10 (hGFG-10; PeproTech, cat. 100-26), 1 ng/mL recombinant human fibroblast growth factor 2 (hFGF-2; PeproTech, cat. 100-18B), and 1 µM prostaglandin E2 (PGE2; Tocris, cat. 2296). The 227483-062-R1-J1-PDC line was cultured in Panc media, containing all 6E components except hFGF-2, with the addition of 500 nM SB-431542 (Selleckchem, cat. S1067) and 10 nM gastrin (Tocris, cat. 3006). […]
# 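Also: spheroids exposed to compounds for 7 days before readout.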
# 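For viability, T/C in this document: 100% = DMSO vehicle wells with luminescence normalized to vehicle control.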
smiles,measurement,setting,value
C=CC(=O)Nc1cc(Nc2nccc(-c3cn(C)c4ccccc34)n2)c(OC)cc1N(C)CCN(C)C,"viability, T/C",compound 0.000949 µM,93.7% and 95.9%
same,"viability, T/C",compound 0.003 µM,76% and 82.3%
same,"viability, T/C",compound 0.00949 µM,101% and 91.3%
same,"viability, T/C",compound 0.03 µM,104% and 89.6%
same,"viability, T/C",compound 0.0949 µM,87.5% and 109%
same,"viability, T/C",compound 0.3 µM,112% and 110%
same,IC50,curve of compound,> 300 nM
C=CC(=O)Nc1cc(Nc2nccc(-c3cn(C)c4ccccc34)n2)c(OC)cc1N(C)CCN(C)C + CNC(=O)c1ccc(Nc2nc(OC3CCCC3)c3c(-c4ccc5nc(C)oc5c4)c[nH]c3n2)c(OC)c1,IC50,"curve of first compound, second compound 0.0316 µM",> 300 nM
same,IC50,"curve of first compound, second compound 0.1 µM",105 nM
same,IC50,"curve of first compound, second compound 0.316 µM",< 0.949 nM
same,IC50,"curve of first compound, second compound 1 µM",< 0.949 nM
same,IC50,"curve of first compound, second compound 3.16 µM",< 0.949 nM
same,IC50,"curve of first compound, second compound 10 µM",< 0.949 nM
same,"viability, T/C","second compound 0.0316 µM, first compound 0.000949 µM",84.3%
same,"viability, T/C","second compound 0.0316 µM, first compound 0.003 µM",92.5%
same,"viability, T/C","second compound 0.0316 µM, first compound 0.00949 µM",75.5%
same,"viability, T/C","second compound 0.0316 µM, first compound 0.03 µM",86.7%
same,"viability, T/C","second compound 0.0316 µM, first compound 0.0949 µM",87.6%
same,"viability, T/C","second compound 0.0316 µM, first compound 0.3 µM",86.1%
same,"viability, T/C","second compound 0.1 µM, first compound 0.000949 µM",49.8%
same,"viability, T/C","second compound 0.1 µM, first compound 0.003 µM",53.3%
same,"viability, T/C","second compound 0.1 µM, first compound 0.00949 µM",51.1%
same,"viability, T/C","second compound 0.1 µM, first compound 0.03 µM",49.2%
same,"viability, T/C","second compound 0.1 µM, first compound 0.0949 µM",51.6%
same,"viability, T/C","second compound 0.1 µM, first compound 0.3 µM",40.5%
same,"viability, T/C","second compound 0.316 µM, first compound 0.000949 µM",28.5%
same,"viability, T/C","second compound 0.316 µM, first compound 0.003 µM",31.7%
same,"viability, T/C","second compound 0.316 µM, first compound 0.00949 µM",28.5%
same,"viability, T/C","second compound 0.316 µM, first compound 0.03 µM",31.1%
same,"viability, T/C","second compound 0.316 µM, first compound 0.0949 µM",35.7%
same,"viability, T/C","second compound 0.316 µM, first compound 0.3 µM",26.2%
same,"viability, T/C","second compound 1 µM, first compound 0.000949 µM",22.4%
same,"viability, T/C","second compound 1 µM, first compound 0.003 µM",27.3%
same,"viability, T/C","second compound 1 µM, first compound 0.00949 µM",21.9%
same,"viability, T/C","second compound 1 µM, first compound 0.03 µM",26.4%
same,"viability, T/C","second compound 1 µM, first compound 0.0949 µM",18.1%
same,"viability, T/C","second compound 1 µM, first compound 0.3 µM",22%
same,"viability, T/C","second compound 3.16 µM, first compound 0.000949 µM",18.5%
same,"viability, T/C","second compound 3.16 µM, first compound 0.003 µM",20.7%
same,"viability, T/C","second compound 3.16 µM, first compound 0.00949 µM",17.6%
same,"viability, T/C","second compound 3.16 µM, first compound 0.03 µM",21.4%
same,"viability, T/C","second compound 3.16 µM, first compound 0.0949 µM",15.2%
same,"viability, T/C","second compound 3.16 µM, first compound 0.3 µM",14.3%
same,"viability, T/C","second compound 10 µM, first compound 0.000949 µM",19.9%
same,"viability, T/C","second compound 10 µM, first compound 0.003 µM",18.8%
same,"viability, T/C","second compound 10 µM, first compound 0.00949 µM",16.1%
same,"viability, T/C","second compound 10 µM, first compound 0.03 µM",18.2%
same,"viability, T/C","second compound 10 µM, first compound 0.0949 µM",14%
same,"viability, T/C","second compound 10 µM, first compound 0.3 µM",11.7%

# Source: PubChem BioAssay AID2060612 (Molecular Pharmacology Branch, DTP, NCI, 2025)
